In patent publication US9980993B2, “Nutraceutical supplement with Lactobacillus rhamnosus” (NWO Stem Cure, LLC, priority 2014, dated 2018):

Tested on: human MSC
Assay: Anti-oxidative stress testing, LIVE/DEAD Viability/Cytotoxicity Assay with H2O2
Assay type: cell-based
Details: MSCs, 12 hours of oxidative stress (100 μM H2O2)
Experimental: The percentage of live and dead cells was determined simultaneously by measuring intracellular esterase activity and plasma membrane integrity using the LIVE/DEAD® Viability/Cytotoxicity Assay Kit (Life Technologies). Briefly, human MSC were plated on 24 wells plate. On, next day cells were treated with ingredients and 100 μM H2O2 for 12 hr. The supernatant media from each well was collected into microtubes and cells were washed with 1×PBS, followed by collection of washes into respective microtubes to collect any floating or dead cells. The cells attached to the bottom of the plate were incubated in 1×PBS in a 37° C. incubator. The microtubes were centrifuged at 2000 rpm for 3 min to get the cell pellet. After removing supernatant, cell pellet was resuspended into 1×PBS containing 2 μM calcein AM and 4 μM ethidium/homodimer. […] The cells were then imaged under 10× objective using fluorescence microscope (Olympus IX71).
The percentage of live and dead cells was determined simultaneously by measuring intracellular esterase activity and plasma membrane integrity using the LIVE/DEAD® Viability/Cytotoxicity Assay Kit (Life Technologies). […] The cells were then imaged under 10× objective using fluorescence microscope (Olympus IX71).
Fluorescence microscope images showing a percentage of live and dead MSCs in 24 wells after 12 hours of treatment with oxidative stress (100 μM H2O2) were examined. […]

C=C1CC[C@H](O)C/C1=C/C=C1\CCC[C@]2(C)[C@@H]([C@H](C)CCCC(C)C)CC[C@@H]12 [Vitamin D alone (0.3 mg), cholecalciferol]
Cell Survival Rate Measured by Fluorescence Microscope (%): 2.5%
